The target of assay [1] is T1, C. elegans Daf12 (Caenorhabditis elegans, UniProt G5EFF5).
T1 construct: C. elegans Daf12 (amino acids 184 to end); expressed in transfected cells; host or cells: Drosophila S2 cells
Kind of assay: S2 cell Daf12 reporter. The format is cell-based. An excerpt:
The Drosophila S2 cell line was originally purchased from Invitrogen and was maintained in Schneider's Drosophila medium supplemented with 10% heat-inactivated bovine fetal calf serum and 1× antibiotic-antimycotic solution (Invitrogen). The Gal4 DNA binding domain (G4 DBD), corresponding to amino acids 1 through 147 of the Gal4 protein, was PCR amplified to make the fusion construct with murine RORγ (amino acids 79 to the carboxyl terminal end) lacking its DNA binding domain. The resulting chimeric gene was subcloned into the copper inducible pMT/V5-His A vector (Invitrogen) and into the constitutive pAc vector. Similar methods yielded fusion constructs between G4 DBD and murine RORα (amino acids 142 to end), Drosophila DHR3 (amino acids 120 to end), C. elegans Daf12 (amino acids 184 to end), and herpes simplex virus VP16 (amino acids 413 to end). Coding sequences for firefly luciferase (Promega) were PCR amplified and subcloned into the pUAST vector containing five Gal4 binding enhancer sequences. The Renilla luciferase construct under a pol III promoter and the pAc vector were obtained from R. Dasgupta (NYU School of Medicine). […]

The test system of assay [2] is IL-17a production in human CD4+ T cells. Kind of assay: Human cord blood CD4+ T cells expressing murine ATP1a1, Th17 conditions. The format is cell-based. To be noted: murine Na+/K+-ATPase α1 expressed, 10 μM. The procedure:
Blood samples were obtained from the New York Blood Center. Mononuclear cells were prepared from buffy coats from healthy adult donors or from cord blood, using FicollPAQUE gradients. CD4^+ T cells were magnetically selected (autoMACS, Miltenyi). Adult memory CD4+ T cell subsets were further purified as CD3^+CD4^+CD25^−CD45RO^+CCR6^+CD161^+ by cell sorting on a FACSAria (BD). Naive CD4^+ T cells were isolated from cord blood as CD3^+CD4^+CD45RA^+HLA^−DR^−CD25^−DAPI^−. Memory cells were activated with anti-CD3/CD28 coated beads (1 bead/cell) in T cell media (see above) supplemented with 100 U/mL IL-2 (Peprotech), 10 ng/mL IL-1β and 10 ng/mL IL-23 (eBioscience). Naive cells were activated with anti-CD3/CD28 beads and cultured with the same cytokines, and TGF-β (0, 0.1, 1, or, 10 ng/mL) (Peprotech), in XVIVO-20 (Lonza) media. […] Naive CD4+ T cells, cultured in XVIVO-20 media supplemented with 100 U/mL IL-2 (Peprotech), were transduced with RORαd-IRES-GFP or RORγt-IRES-GFP on day 1 and analyzed on day 6. GFP expressing cells were gated for analysis. DMSO or compounds were added 6-8 hours after the viral transduction.

We go through one compound from patent US9505798B2, “Steroid compounds as RORyt modulators and uses thereof” (New York University, priority 2010, dated 2016).

T1 sequence (G5EFF5 184-753 limits assumed): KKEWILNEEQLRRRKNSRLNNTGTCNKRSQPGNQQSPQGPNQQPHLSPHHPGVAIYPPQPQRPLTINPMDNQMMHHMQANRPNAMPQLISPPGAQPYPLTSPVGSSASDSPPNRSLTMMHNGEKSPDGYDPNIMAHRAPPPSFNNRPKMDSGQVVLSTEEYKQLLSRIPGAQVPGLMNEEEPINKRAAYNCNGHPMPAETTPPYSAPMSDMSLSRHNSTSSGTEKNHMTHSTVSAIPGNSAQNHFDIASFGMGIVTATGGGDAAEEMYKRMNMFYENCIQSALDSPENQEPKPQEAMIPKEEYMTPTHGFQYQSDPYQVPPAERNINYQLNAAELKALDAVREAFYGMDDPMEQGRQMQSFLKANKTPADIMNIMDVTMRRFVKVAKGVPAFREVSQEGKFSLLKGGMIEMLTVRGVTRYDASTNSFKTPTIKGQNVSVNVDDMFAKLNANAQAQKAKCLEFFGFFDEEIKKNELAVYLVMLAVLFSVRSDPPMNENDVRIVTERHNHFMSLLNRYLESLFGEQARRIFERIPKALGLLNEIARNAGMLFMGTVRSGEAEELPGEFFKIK

In the case of `C[C@H]1O[C@@H](O[C@H]2[C@@H](O)C[C@H](O[C@H]3[C@@H](O)C[C@H](O[C@H]4CC[C@@]5(C)[C@H](CC[C@@H]6[C@@H]5C[C@@H](O)[C@]5(C)[C@@H](C7=CC(=O)OC7)CC[C@]65O)C4)O[C@@H]3C)O[C@@H]2C)C[C@H](O)[C@@H]1O` [Digoxin], the “inhibition of C. elegans Daf12 activity” value in assay [1] is reported as “did not inhibit”. In addition, the IL-17a expression entry in assay [2] is listed as “suppressed IL-17a production without affecting IFN-γ expression”.
